# PubChem BioAssay (NCI)
#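 The concentration for 50% growth inhibition is given as GI50. TGI marks complete inhibition of growth.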
# Columns and labels:
# Assay in all cases: inhibition of tumour cell growth, NCI panel, 384-well format
# [1] = system: KM12 colon
# [2] = system: SK-MEL-28 melanoma
# [3] = system: NCI-H460 NSCLC
# [4] = system: NCI-H322M lung
# [5] = system: SF-268 CNS
# [6] = system: TK-10 renal
# [7] = system: T-47D breast
# [8] = system: OVCAR-4 ovarian
# [9] = system: NCI-H23 lung
# [10] = system: SN12C renal
# [11] = system: UACC-62 melanoma
# [12] = system: CAKI-1 renal
# [13] = system: HCT-15 colon
# [14] = system: UACC-257 melanoma
# [15] = system: HCC-2998 colon
# [16] = system: SF-295 CNS
# [17] = system: M14 melanoma
# [18] = system: MOLT-4 leukemia
# [19] = system: NCI-H226 lung
# [20] = system: RXF 393 renal
# [21] = system: IGROV1 ovarian
# [22] = system: UO-31 renal
# [23] = system: A549 NSCLC
# [24] = system: HT29 colon
# [25] = system: MCF7 breast
# [26] = system: MALME-3M melanoma
# [27] = system: HOP-92 NSCLC
# [28] = system: OVCAR-3 ovarian
# [29] = system: MDA-MB-468 breast
# [30] = system: SW-620 colon
# [31] = system: RPMI-8226 leukemia
# [32] = system: COLO 205 colon
# [33] = system: MDA-MB-231 breast
# [34] = system: PC-3 prostate
# [35] = system: NCI/ADR-RES ovarian
# [36] = system: HL-60(TB) leukemia
# [37] = system: SNB-75 CNS
# [38] = system: U251 glioblastoma
# [39] = system: EKVX NSCLC
# [40] = system: K-562 leukemia
# [41] = system: SK-OV-3 ovarian
# [42] = system: HS 578T breast
# [43] = system: LOX IMVI melanoma
# [44] = system: A498 renal
# [45] = system: MDA-MB-435 melanoma
# [46] = system: BT-549 breast
# [47] = system: HCT-116 colon
# [48] = system: SR leukemia
# [49] = system: HOP-62 NSCLC
# [50] = system: SNB-19 CNS
# [51] = system: OVCAR-8 ovarian
# [52] = system: NCI-H522 lung
# [53] = system: DU-145 prostate
# [54] = system: SF-539 CNS
# [55] = system: SK-MEL-5 melanoma
# [56] = system: 786-0 renal
# [57] = system: CCRF-CEM leukemia
# [58] = system: ACHN renal
structure (smiles),measurement,setting,value
C=CC(=O)Nc1cccc(Nc2nc(Nc3ccc(OCCOC)cc3)ncc2F)c1,GI50,[1],3.53 µM
same,TGI,[1],14.3 µM
same,GI50,[2],9.82 µM
same,TGI,[2],21.6 µM
same,GI50,[3],2.02 µM
same,TGI,[3],10.3 µM
same,GI50,[4],1.63 µM
same,TGI,[4],8.82 µM
same,GI50,[5],2.34 µM
same,TGI,[5],10.5 µM
same,GI50,[6],1.31 µM
same,TGI,[6],3.09 µM
same,GI50,[7],2.49 µM
same,TGI,[7],13.9 µM
same,GI50,[8],10.3 µM
same,TGI,[8],22.1 µM
same,GI50,[9],2.42 µM
same,TGI,[9],12.9 µM
same,GI50,[10],1.28 µM
same,TGI,[10],4.07 µM
same,GI50,[11],1.52 µM
same,TGI,[11],12.8 µM
same,GI50,[12],0.602 µM
same,TGI,[12],2.08 µM
same,GI50,[13],1.97 µM
same,TGI,[13],12.9 µM
same,GI50,[14],6.67 µM
same,TGI,[14],19.3 µM
same,GI50,[15],2.55 µM
same,TGI,[15],13.7 µM
same,GI50,[16],4.9 µM
same,TGI,[16],17.1 µM
same,GI50,[17],1.71 µM
same,TGI,[17],14.7 µM
same,GI50,[18],1.47 µM
same,TGI,[18],2.84 µM
same,GI50,[19],1 µM
same,TGI,[19],5.79 µM
same,GI50,[20],0.867 µM
same,TGI,[20],3.26 µM
same,GI50,[21],1 µM
same,TGI,[21],2.28 µM
same,GI50,[22],1.17 µM
same,TGI,[22],3.39 µM
same,GI50,[23],2.88 µM
same,TGI,[23],11.2 µM
same,GI50,[24],2.98 µM
same,TGI,[24],11.6 µM
same,GI50,[25],3.1 µM
same,TGI,[25],14.8 µM
same,GI50,[26],3.64 µM
same,TGI,[26],16.8 µM
same,GI50,[27],1.82 µM
same,TGI,[27],9.64 µM
same,GI50,[28],1.22 µM
same,TGI,[28],4.74 µM
same,GI50,[29],0.562 µM
same,TGI,[29],1.76 µM
same,GI50,[30],1.84 µM
same,TGI,[30],4.16 µM
same,GI50,[31],1.01 µM
same,TGI,[31],2.99 µM
same,GI50,[32],5.33 µM
same,TGI,[32],16.7 µM
same,GI50,[33],2.3 µM
same,TGI,[33],14.7 µM
same,GI50,[34],2.81 µM
same,TGI,[34],12.6 µM
same,GI50,[35],2.44 µM
same,TGI,[35],6.32 µM
same,GI50,[36],1.21 µM
same,TGI,[36],2.64 µM
same,GI50,[37],1.1 µM
same,TGI,[37],2.82 µM
same,GI50,[38],2.86 µM
same,TGI,[38],13.1 µM
same,GI50,[39],2.06 µM
same,TGI,[39],9.06 µM
same,GI50,[40],3.73 µM
same,TGI,[40],13.6 µM
same,GI50,[41],0.755 µM
same,TGI,[41],3.02 µM
same,GI50,[42],1.05 µM
same,TGI,[42],2.85 µM
same,GI50,[43],2.19 µM
same,TGI,[43],6.05 µM
same,GI50,[44],0.493 µM
same,TGI,[44],1.93 µM
same,GI50,[45],5.33 µM
same,TGI,[45],17.6 µM
same,GI50,[46],0.802 µM
same,TGI,[46],2.84 µM
same,GI50,[47],2.5 µM
same,TGI,[47],12.7 µM
same,GI50,[48],0.933 µM
same,TGI,[48],2.66 µM
same,GI50,[49],2.9 µM
same,TGI,[49],11.1 µM
same,GI50,[50],4.01 µM
same,TGI,[50],14.6 µM
same,GI50,[51],2.51 µM
same,TGI,[51],8.72 µM
same,GI50,[52],1.48 µM
same,TGI,[52],4.37 µM
same,GI50,[53],2.21 µM
same,TGI,[53],13.5 µM
same,GI50,[54],1.48 µM
same,TGI,[54],3.26 µM
same,GI50,[55],4.78 µM
same,TGI,[55],18 µM
same,GI50,[56],1.68 µM
same,TGI,[56],6.51 µM
same,GI50,[57],1.62 µM
same,TGI,[57],3.39 µM
same,GI50,[58],1.01 µM
same,TGI,[58],3.51 µM
